Compound in experiment [1]: CCN(CC)CCCCNc1ncc2cc(-c3cc(OC)cc(OC)c3)c(NC(=O)NC(C)(C)C)nc2n1
The experiment in a line: surviving fraction relative to DMSO-only wells; higher = less growth inhibition. As to conditions: exposure time: 5 days. The essentials: (§1)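 Viability was scored with CellTiter-Glo luminescence and normalised to the median of DMSO-only wells as surviving fraction. Beforehand, log-phase tumour cell lines were seeded at 250–500 cells per well in 384-well plates, allowed 24 hours, and exposed continuously for five days to inhibitors at 0.5, 1, 5, 10, 50, 100, 500 and 1000 nM. Only lines whose three screens gave replicate Pearson r >0.7 and median Z' >0.3 were kept.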

Compound in experiment [2]: CN1CC[C@H](c2c(O)cc(O)c3c(=O)cc(-c4ccccc4Cl)oc23)[C@H](O)C1 [FLAVOPIRIDOL]
Described as above. The settings on record: exposure time: 5 days. In a few lines:
as §1

± gives the standard deviation of the averaged measurements.

Take G292 BONE: the surviving fraction came to 0.836 ± 0.27 in experiment [1] (0.5 nM); 0.97 ± 0.048 in experiment [1] (1 nM); 0.958 ± 0.027 in experiment [1] (5 nM); 0.918 ± 0.042 in experiment [1] (10 nM); 0.495 ± 0.17 in experiment [1] (50 nM); 0.387 ± 0.008 in experiment [1] (100 nM). Also, the surviving fraction worked out at 0.181 ± 0.012 in experiment [1] (500 nM); 0.18 ± 0.0066 in experiment [1] (1000 nM); 0.97 ± 0.068 in experiment [2] (0.5 nM); 0.987 ± 0.057 in experiment [2] (1 nM); 1.033 ± 0.0078 in experiment [2] (5 nM); 0.995 ± 0.024 in experiment [2] (10 nM). The surviving fraction in experiment [2] (50 nM) turned out to be 0.628 ± 0.039; in experiment [2] (100 nM), 0.18 ± 0.0055; in experiment [2] (500 nM) it was 0.0742 ± 0.0043; in experiment [2] (1000 nM), 0.0712 ± 0.0055.
HCC70 BREAST: the surviving fraction in experiment [1] (0.5 nM) amounted to 0.977 ± 0.084; in experiment [1] (1 nM) it was 1 ± 0.017; in experiment [1] (5 nM) it was 0.957 ± 0.12; in experiment [1] (10 nM) it was 1.07 ± 0.041; in experiment [1] (50 nM), 1.05 ± 0.06; in experiment [1] (100 nM) it was 1.08 ± 0.037. The surviving fraction in experiment [1] (500 nM) was 0.962 ± 0.055; in experiment [1] (1000 nM), 1 ± 0.09; in experiment [2] (0.5 nM), 1.03 ± 0.06; in experiment [2] (1 nM), 1.02 ± 0.11; in experiment [2] (5 nM), 1.06 ± 0.1; in experiment [2] (10 nM) it was 1.01 ± 0.11. In addition, the surviving fraction in experiment [2] (50 nM) was found to be 0.784 ± 0.1; in experiment [2] (100 nM), 0.129 ± 0.078; in experiment [2] (500 nM), 0.0557 ± 0.032; in experiment [2] (1000 nM), 0.0423 ± 0.019.
As to HS57T BREAST, the surviving fraction came out at 0.932 ± 0.022 in experiment [1] (0.5 nM); 0.899 ± 0.03 in experiment [1] (1 nM); 0.977 ± 0.067 in experiment [1] (5 nM); 0.952 ± 0.015 in experiment [1] (10 nM); 0.67 ± 0.03 in experiment [1] (50 nM); 0.693 ± 0.078 in experiment [1] (100 nM). Besides, the surviving fraction was found to be 0.577 ± 0.021 in experiment [1] (500 nM); 0.579 ± 0.089 in experiment [1] (1000 nM); 1.06 ± 0.053 in experiment [2] (0.5 nM); 1.06 ± 0.015 in experiment [2] (1 nM); 1.12 ± 0.037 in experiment [2] (5 nM); 1.16 ± 0.035 in experiment [2] (10 nM). The surviving fraction in experiment [2] (50 nM) amounted to 0.667 ± 0.018; in experiment [2] (100 nM), 0.0337 ± 0.0025; in experiment [2] (500 nM), 0.036 ± 0.001; in experiment [2] (1000 nM), 0.0327 ± 0.0021.
HMT3552 BREAST: the surviving fraction worked out at 1.15 in experiment [1] (0.5 nM); 0.971 in experiment [1] (1 nM); 0.993 in experiment [1] (5 nM); 1.05 in experiment [1] (10 nM); 0.89 in experiment [1] (50 nM); 0.98 in experiment [1] (100 nM). Moreover, the surviving fraction in experiment [1] (500 nM) was 0.827; in experiment [1] (1000 nM), 0.803; in experiment [2] (0.5 nM), 1.06 ± 0.041; in experiment [2] (1 nM), 1.05 ± 0.045; in experiment [2] (5 nM), 0.986 ± 0.071; in experiment [2] (10 nM) it was 0.963 ± 0.027. For the same test system, the surviving fraction in experiment [2] (50 nM) was 0.232 ± 0.019; in experiment [2] (100 nM), 0.068 ± 0.0027; in experiment [2] (500 nM), 0.066 ± 0.003; in experiment [2] (1000 nM), 0.061 ± 0.0027.
As for HS578T BREAST, the surviving fraction came to 0.97 ± 0.1 in experiment [1] (0.5 nM); 1.03 ± 0.19 in experiment [1] (1 nM); 0.973 ± 0.098 in experiment [1] (5 nM); 1.02 ± 0.02 in experiment [1] (10 nM); 0.836 ± 0.021 in experiment [1] (50 nM); 0.801 ± 0.056 in experiment [1] (100 nM). The surviving fraction was 0.886 ± 0.096 in experiment [1] (500 nM); 0.738 ± 0.095 in experiment [1] (1000 nM); 1.13 ± 0.054 in experiment [2] (0.5 nM); 1.21 ± 0.13 in experiment [2] (1 nM); 1.19 ± 0.29 in experiment [2] (5 nM); 1.21 ± 0.2 in experiment [2] (10 nM). The surviving fraction in experiment [2] (50 nM) was found to be 0.667 ± 0.08; in experiment [2] (100 nM), 0.0923 ± 0.01; in experiment [2] (500 nM) it was 0.068 ± 0.0036; in experiment [2] (1000 nM) it was 0.0673 ± 0.0025.
As for HCC38 BREAST, the surviving fraction is 1.15 ± 0.23 in experiment [1] (0.5 nM); 0.97 ± 0.19 in experiment [1] (1 nM); 1.15 ± 0.17 in experiment [1] (5 nM); 1.12 ± 0.19 in experiment [1] (10 nM); 0.979 ± 0.37 in experiment [1] (50 nM); 1.04 ± 0.18 in experiment [1] (100 nM). The surviving fraction worked out at 0.824 ± 0.17 in experiment [1] (500 nM); 0.846 ± 0.2 in experiment [1] (1000 nM); 1.18 ± 0.1 in experiment [2] (0.5 nM); 1.22 ± 0.13 in experiment [2] (1 nM); 1.33 ± 0.097 in experiment [2] (5 nM); 1.34 ± 0.21 in experiment [2] (10 nM). Moreover, the surviving fraction in experiment [2] (50 nM) is 1.02 ± 0.15; in experiment [2] (100 nM) it was 0.571 ± 0.18; in experiment [2] (500 nM) it was 0.046 ± 0.0053; in experiment [2] (1000 nM), 0.0423 ± 0.0093.
For the test system HMLE3 BREAST, the surviving fraction in experiment [1] (0.5 nM) came out at 0.929 ± 0.061; in experiment [1] (1 nM), 0.934 ± 0.049; in experiment [1] (5 nM), 0.895 ± 0.05; in experiment [1] (10 nM), 0.995 ± 0.056; in experiment [1] (50 nM), 0.764 ± 0.049; in experiment [1] (100 nM), 0.683 ± 0.052. In addition, the surviving fraction came out at 0.428 ± 0.0075 in experiment [1] (500 nM); 0.41 ± 0.023 in experiment [1] (1000 nM); 1.07 ± 0.088 in experiment [2] (0.5 nM); 0.951 ± 0.097 in experiment [2] (1 nM); 1.16 ± 0.087 in experiment [2] (5 nM); 1.11 ± 0.097 in experiment [2] (10 nM). Besides, the surviving fraction in experiment [2] (50 nM) was found to be 0.771 ± 0.074; in experiment [2] (100 nM), 0.131 ± 0.029; in experiment [2] (500 nM), 0.026 ± 0.0036; in experiment [2] (1000 nM), 0.0233 ± 0.0015.
For CCK81 LARGE INTESTINE, the surviving fraction in experiment [2] (0.5 nM) is 0.883 ± 0.13; in experiment [2] (1 nM) it was 0.817 ± 0.082; in experiment [2] (5 nM) it was 0.785 ± 0.15; in experiment [2] (10 nM) it was 0.813 ± 0.1; in experiment [2] (50 nM), 0.416 ± 0.062; in experiment [2] (100 nM), 0.0273 ± 0.011. The surviving fraction in experiment [2] (500 nM) was 0.0177 ± 0.0015; in experiment [2] (1000 nM), 0.0203 ± 0.00058.
